Data reported in US9822110B2, “Sulfonamide derivative and pharmaceutical use thereof” (EA Pharma Co., Ltd., priority 2013, dated 2017).

target: T1, MAdCAM-1/α4β7 integrin (Homo sapiens, UniProt P13612+P26010); experiment: Evaluation test (1) for MAdCAM-1/α4β7 integrin binding inhibitory activity in the presence of serum (RPMI-8866 cell binding to MAdCAM-1/Fc); assay type: cell-based; conditions: RPMI-8866 cells, recombinant mouse MAdCAM-1/Fc, human serum at final concentration of 50%; read-out: α4β7 Serum Activity rank when α4β7 serum was added
T1 construct: a human B-cell line known to express α4β7 integrin; endogenous in cells; host or cells: RPMI-8866 (human B-cell line)
T1 sequence (P13612 34-1032): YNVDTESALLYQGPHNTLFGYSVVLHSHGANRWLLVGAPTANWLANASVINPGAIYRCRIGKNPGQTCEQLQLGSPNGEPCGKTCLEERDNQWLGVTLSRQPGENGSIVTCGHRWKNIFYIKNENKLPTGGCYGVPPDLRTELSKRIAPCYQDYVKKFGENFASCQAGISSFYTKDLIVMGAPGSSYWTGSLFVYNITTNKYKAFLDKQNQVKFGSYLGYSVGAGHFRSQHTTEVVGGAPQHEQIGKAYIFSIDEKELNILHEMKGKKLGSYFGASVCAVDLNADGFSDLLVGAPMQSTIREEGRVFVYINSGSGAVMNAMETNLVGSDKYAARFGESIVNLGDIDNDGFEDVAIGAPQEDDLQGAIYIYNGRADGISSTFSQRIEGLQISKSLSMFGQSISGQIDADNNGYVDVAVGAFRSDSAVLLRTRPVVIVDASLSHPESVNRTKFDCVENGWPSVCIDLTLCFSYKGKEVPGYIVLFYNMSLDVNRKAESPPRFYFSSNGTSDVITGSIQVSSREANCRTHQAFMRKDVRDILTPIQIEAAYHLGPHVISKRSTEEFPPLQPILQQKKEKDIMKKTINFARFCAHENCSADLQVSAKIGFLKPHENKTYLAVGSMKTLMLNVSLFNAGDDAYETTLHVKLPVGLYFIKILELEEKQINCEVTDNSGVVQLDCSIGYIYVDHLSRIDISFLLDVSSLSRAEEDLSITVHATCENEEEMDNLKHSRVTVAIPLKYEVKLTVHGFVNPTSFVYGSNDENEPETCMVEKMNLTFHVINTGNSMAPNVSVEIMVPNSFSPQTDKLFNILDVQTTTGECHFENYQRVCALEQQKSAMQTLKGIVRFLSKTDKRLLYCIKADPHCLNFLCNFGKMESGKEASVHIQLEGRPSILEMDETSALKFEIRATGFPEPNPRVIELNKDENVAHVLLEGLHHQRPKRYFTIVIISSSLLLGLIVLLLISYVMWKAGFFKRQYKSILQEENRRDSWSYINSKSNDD
T1 sequence (P26010 20-798): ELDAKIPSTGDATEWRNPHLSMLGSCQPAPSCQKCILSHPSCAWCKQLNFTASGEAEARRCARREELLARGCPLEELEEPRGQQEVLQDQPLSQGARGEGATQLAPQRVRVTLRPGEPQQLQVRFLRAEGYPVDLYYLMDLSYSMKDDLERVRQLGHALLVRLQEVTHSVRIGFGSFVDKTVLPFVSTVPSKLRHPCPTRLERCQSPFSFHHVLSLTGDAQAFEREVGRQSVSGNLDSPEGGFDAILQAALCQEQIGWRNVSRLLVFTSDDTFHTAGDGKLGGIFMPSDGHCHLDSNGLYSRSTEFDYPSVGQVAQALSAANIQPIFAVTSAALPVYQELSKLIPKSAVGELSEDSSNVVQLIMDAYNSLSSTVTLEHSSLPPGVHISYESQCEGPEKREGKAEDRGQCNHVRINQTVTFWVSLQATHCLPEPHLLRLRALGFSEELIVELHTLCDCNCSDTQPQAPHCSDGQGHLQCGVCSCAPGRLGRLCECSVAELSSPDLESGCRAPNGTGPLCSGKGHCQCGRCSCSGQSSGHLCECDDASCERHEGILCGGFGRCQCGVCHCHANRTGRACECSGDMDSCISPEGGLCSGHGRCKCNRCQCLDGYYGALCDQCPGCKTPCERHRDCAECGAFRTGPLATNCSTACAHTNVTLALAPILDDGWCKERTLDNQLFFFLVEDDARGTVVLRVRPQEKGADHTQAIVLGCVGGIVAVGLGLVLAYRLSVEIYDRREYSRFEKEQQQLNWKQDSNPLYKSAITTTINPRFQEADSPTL
Procedure: The selectivity was determined by dividing the IC50 value in the evaluation test for VCAM-1/α4β1 integrin binding inhibitory activity by the IC50 value in the evaluation test for MAdCAM-1/α4β7 integrin binding inhibitory activity. • (3) Evaluation Test (1) for MAdCAM-1/α4β7 Integrin Binding Inhibitory Activity in the Presence of Serum
The ability of test substances to inhibit the binding of RPMI-8866 cell line, a human B-cell line known to express α4β7 integrin, to MAdCAM-1 was examined.
A 96-well microtiter plate was coated overnight at 4° C. with a recombinant mouse MAdCAM-1/Fc (R&D systems) solution diluted with the buffer A (carbonate buffer, pH 9.6). After washing once with PBS, 150 μL/well of Block Ace (manufactured by Snow Brand Milk Products Co., Ltd.) was added, and it was incubated at room temperature for 2 hours. After removal, it was washed once with PBS.
100 μL of each of test substances and RPMI-8866 cells diluted with a binding buffer solution (DMEM containing 40 mM HEPES, 0.2% BSA, and 4 mM MnCl2) to various concentrations was added to the plate coated with MAdCAM-1/Fc, so that human serum was contained at a final concentration of 50%, and it was incubated at 30° C. for 15 minutes to 60 minutes. After the cells were bound to the wells, unbound cells were removed by washing with PBS. 50 μL/well of the buffer solution C (PBS containing 1.5% Triton X-100) was added to the plate to dissolve the bound RPMI-8866 cells. 30 μL of substrate buffer (Promega, CytoTox 96 Non-Radioactive Cytotoxicity Assay) was added to 30 μL of a cell lysate to allow a reaction for 30 minutes at room temperature in a dark place. 30 μL of stop solution (Promega, CytoTox 96 Non-Radioactive Cytotoxicity Assay) was added thereto to determine the absorbance at 490 nm using a plate reader. The absorbance was obtained herein by detecting the activity of lactate dehydrogenase (LDH) eluted in a supernatant of each well, that is, the absorbance is proportional to the number of RPMI-8866 cells remaining on the plate by being bound to MAdCAM-1. The test was duplicated, and the cell binding rate at various concentrations with the absorbance of the well containing no test substance being taken as 100% was determined, to calculate the concentration IC50 at which 50% of binding was inhibited.

With `Cc1cn(-c2ccc(S(=O)(=O)Nc3cc(F)c(C(=O)N[C@@H](Cc4ccc(-c5c(C)n(C)c(=O)n(C)c5=O)cc4)C(=O)O)cc3F)nc2)nn1` [Example 37, (2S)-2-[[2,5-Difluoro-4-[[5-(4-methyltriazol-1-yl)-2-pyridyl]sulfonylamino]benzoyl]amino]-3-[4-(1,3,4-trimethyl-2,6-dioxo-pyrimidin-5-yl)phenyl]propanoic acid] as the compound, how does the IC50 read?
Its IC50 is 10 to 50 nM.

With `Cc1c(-c2ccc(C[C@H](NC(=O)c3cc(F)c(NS(=O)(=O)c4ccco4)cc3F)C(=O)O)cc2)c(=O)n(C)c(=O)n1C` [Example 38, (2S)-2-[[2,5-Difluoro-4-(2-furylsulfonylamino)benzoyl]amino]-3-[4-(1,3,4-trimethyl-2,6-dioxo-pyrimidin-5-yl)phenyl]propanoic acid] as the compound, how does the IC50 read?
Its IC50 is 10 to 50 nM.

How did the IC50 turn out when `CNCc1ccc2c(c1)c(=O)n(-c1ccc(C[C@H](NC(=O)c3cc(F)c(NS(=O)(=O)c4ccc(-c5cnc(COC)nc5)cc4)cc3F)C(=O)O)cc1)c(=O)n2C` [Example 39, (2S)-2-[[2,5-Difluoro-4-[[4-[2-(methoxymethyl)pyrimidin-5-yl]phenyl]sulfonylamino]benzoyl]amino]-3-[4-[1-methyl-6-(methylaminomethyl)-2,4-dioxo-quinazolin-3-yl]phenyl]propanoic acid] was run?
Its IC50 is 10 to 50 nM.

`Cc1c(-c2ccc(C[C@H](NC(=O)c3cc(F)c(NS(=O)(=O)c4ccc(-c5cnc(COC(C)C)nc5)cc4)cc3F)C(=O)O)cc2)c(=O)n(C)c(=O)n1C` [Example 40, (2S)-2-[[2,5-Difluoro-4-[[4-[2-(isopropoxymethyl)pyrimidin-5-yl]phenyl]sulfonylamino]benzoyl]amino]-3-[4-(1,3,4-trimethyl-2,6-dioxo-pyrimidin-5-yl)phenyl]propanoic acid] was tested. Which IC50 did it give?
The IC50 was 50 to 200 nM.

`COc1cc2c(=O)n(-c3ccc(C[C@H](NC(=O)c4cc(F)c(NS(=O)(=O)c5ccc(-c6cnc(COC(C)C)nc6)cc5)cc4F)C(=O)O)nc3)c(=O)n(C)c2cn1` [Example 41, (2S)-2-[[2,5-Difluoro-4-[[4-[2-(isopropoxymethyl)pyrimidin-5-yl]phenyl]sulfonylamino]benzoyl]amino]-3-[5-(6-methoxy-1-methyl-2,4-dioxo-pyrido[3,4-d]pyrimidin-3-yl)-2-pyridyl]propanoic acid] was tested. Which IC50 did it give?
Its IC50 is > 200 nM.

For `CC(C)OCc1ncc(-c2ccc(S(=O)(=O)Nc3cc(F)c(C(=O)N[C@@H](Cc4ccc(-n5c(=O)ccn(C)c5=O)cc4)C(=O)O)cc3F)cc2)cn1` [Example 42, (2S)-2-[[2,5-Difluoro-4-[[4-[2-(isopropoxymethyl)pyrimidin-5-yl]phenyl]sulfonylamino]benzoyl]amino]-3-[4-(3-methyl-2,6-dioxo-pyrimidin-1-yl)phenyl]propanoic acid], which IC50 is on record?
Its IC50 is 50 to 200 nM.

How did the IC50 turn out when `CC(C)OCc1ncc(-c2ccc(S(=O)(=O)Nc3cc(F)c(C(=O)N[C@@H](Cc4ccc(-n5c(=O)c6cncnc6n(C)c5=O)cn4)C(=O)O)cc3F)cc2)cn1` [Example 43, (2S)-2-[[2,5-Difluoro-4-[[4-[2-(isopropoxymethyl)pyrimidin-5-yl]phenyl]sulfonylamino]benzoyl]amino]-3-[5-(1-methyl-2,4-dioxo-pyrimido[4,5-d]pyrimidin-3-yl)-2-pyridyl]propanoic acid] was run?
Its IC50 is > 200 nM.

How did the IC50 turn out when `CC(C)OCc1ncc(-c2ccc(S(=O)(=O)Nc3cc(F)c(C(=O)N[C@@H](Cc4ccc(-n5c(=O)cc(C(F)(F)F)n(C)c5=O)cc4)C(=O)O)cc3F)cc2)cn1` [Example 44, (2S)-2-[[2,5-Difluoro-4-[[4-[2-(isopropoxymethyl)pyrimidin-5-yl]phenyl]sulfonylamino]benzoyl]amino]-3-[4-[3-methyl-2,6-dioxo-4-(trifluoromethyl)pyrimidin-1-yl]phenyl]propanoic acid] was run?
Its IC50 is 50 to 200 nM.

`CCc1ncc(-c2ccc(S(=O)(=O)Nc3c(F)c(F)c(C(=O)N[C@@H](Cc4ccc(-c5c(C)n(C)c(=O)n(C)c5=O)cc4)C(=O)O)c(F)c3F)cc2)cn1` [Example 45, (2S)-2-[[4-[[4-(2-Ethylpyrimidin-5-yl)phenyl]sulfonylamino]-2,3,5,6-tetrafluoro-benzoyl]amino]-3-[4-(1,3,4-trimethyl-2,6-dioxo-pyrimidin-5-yl)phenyl]propanoic acid] was tested. Which IC50 did it give?
Its IC50 is 10 to 50 nM.

Which IC50 does the source give for `Cc1cc(-c2ccccn2)ccc1S(=O)(=O)Nc1ccc(C(=O)N[C@@H](Cc2ccc(-c3c(C)n(C)c(=O)n(C)c3=O)cc2)C(=O)O)c(F)c1` [Example 46, (2S)-2-[[2-Fluoro-4-[[2-methyl-4-(2-pyridyl)phenyl]sulfonylamino]benzoyl]amino]-3-[4-(1,3,4-trimethyl-2,6-dioxo-pyrimidin-5-yl)phenyl]propanoic acid] here?
Its IC50 is > 200 nM.

How did the IC50 turn out when `Cc1c(-c2ccc(C[C@H](NC(=O)c3c(F)cc(NS(=O)(=O)c4ccc(C(=O)NC5CC5)cc4)cc3F)C(=O)O)cc2)c(=O)n(C)c(=O)n1C` [Example 47] was run?
Its IC50 is 10 to 50 nM.

For `COCc1ncc(-c2ccc(S(=O)(=O)Nc3cc(F)c(C(=O)N[C@@H](Cc4ccc(-n5c(=O)c6ccncc6n(C)c5=O)nc4)C(=O)O)cc3F)cc2)cn1` [Example 51, (2S)-2-[[2,5-Difluoro-4-[[4-[2-(methoxymethyl)pyrimidin-5-yl]phenyl]sulfonylamino]benzoyl]amino]-3-[6-(1-methyl-2,4-dioxo-pyrido[3,4-d]pyrimidin-3-yl)-3-pyridyl]propanoic acid], which IC50 is on record?
The IC50 was 10 to 50 nM.

For `CC(C)OCc1ncc(-c2ccc(S(=O)(=O)Nc3cc(F)c(C(=O)N[C@@H](Cc4ccc(-n5c(=O)c6ccncc6n(C)c5=O)cc4)C(=O)O)cc3F)cc2)cn1` [Example 85], which IC50 is on record?
Its IC50 is 10 to 50 nM.

For `Cc1c(-c2ccc(C[C@H](NC(=O)c3cc(F)c(NS(=O)(=O)c4ccc(-c5cnc(C6CCOCC6)nc5)cc4)cc3F)C(=O)O)cc2)c(=O)n(C)c(=O)n1C` [Example 86, (2S)-2-[[2,5-Difluoro-4-[[4-(2-tetrahydropyran-4-ylpyrimidin-5-yl)phenyl]sulfonylamino]benzoyl]amino]-3-[4-(1,3,4-trimethyl-2,6-dioxopyrimidin-5-yl)phenyl]propanoic acid], which IC50 is on record?
Its IC50 is 10 to 50 nM.
